Laboratory results taken from ChEMBL document CHEMBL3124777, “Synthesis and biological evaluation of thiazoline derivatives as new antimicrobial and anticancer agents” (Eur J Med Chem, 2014).
≈ marks a conversion by molar mass, not a printed value.

Experiments:
Escherichia coli = assay: Antimicrobial activity against Escherichia coli ATCC 25922 after 18 to 24 hrs by microbroth dilution method; assay type: functional
Micrococcus luteus = assay: Antimicrobial activity against Micrococcus luteus NRLL B-4375 after 18 to 24 hrs by microbroth dilution method; assay type: functional
Listeria monocytogenes = assay: Antimicrobial activity against Listeria monocytogenes ATCC 7644 after 18 to 24 hrs by microbroth dilution method; assay type: functional
Staphylococcus aureus = assay: Antimicrobial activity against Staphylococcus aureus NRRL B-767 after 18 to 24 hrs by microbroth dilution method; assay type: functional
Bacillus subtilis = assay: Antimicrobial activity against Bacillus subtilis NRS-744 after 18 to 24 hrs by microbroth dilution method; assay type: functional
Pseudomonas aeruginosa = assay: Antimicrobial activity against Pseudomonas aeruginosa […] after 18 to 24 hrs by microbroth dilution method; assay type: functional
Aspergillus parasiticus = assay: Antimicrobial activity against Aspergillus parasiticus NRRL 465 after 48 to 72 hrs by microbroth dilution method; assay type: functional
Fusarium culmorum = assay: Antimicrobial activity against wild type Fusarium culmorum after 48 to 72 hrs by microbroth dilution method; assay type: functional
Fusarium solani = assay: Antimicrobial activity against Fusarium solani NRRL 13414 after 48 to 72 hrs by microbroth dilution method; assay type: functional
Aspergillus ochraceus = assay: Antimicrobial activity against Aspergillus ochraceus NRRL 3174 after 48 to 72 hrs by microbroth dilution method; assay type: functional
Candida albicans = assay: Antimicrobial activity against Candida albicans ATCC 22019 after 18 to 24 hrs by microbroth dilution method; assay type: functional
NIH3T3 = assay: Cytotoxicity against mouse NIH/3T3 cells after 24 hrs by MTT assay; assay type: cell-based; conditions: NIH3T3, 24 h
Fusarium verticillioides = assay: Antimicrobial activity against Fusarium moniliforme NRRL 1866 after 48 to 72 hrs by microbroth dilution method; assay type: functional
Penicillium chrysogenum = assay: Antimicrobial activity against Penicillium chrysogenum NRRL 1951 after 48 to 72 hrs by microbroth dilution method; assay type: functional
Trichoderma harzianum = assay: Antimicrobial activity against Trichoderma harzianum NRRL 20565 after 48 to 72 hrs by microbroth dilution method; assay type: functional

Row | SMILES | MIC (Escherichia coli) [µg/mL] | MIC (Micrococcus luteus) [µg/mL] | MIC (Listeria monocytogenes) [µg/mL] | MIC (Staphylococcus aureus) [µg/mL] | MIC (Bacillus subtilis) [µg/mL] | MIC (Pseudomonas aeruginosa) [µg/mL] | MIC (Aspergillus parasiticus) [µg/mL] | MIC (Fusarium culmorum) [µg/mL] | MIC (Fusarium solani) [µg/mL] | MIC (Aspergillus ochraceus) [µg/mL] | MIC (Candida albicans) [µg/mL] | IC50 (NIH3T3) [µg/mL] | MIC (Fusarium verticillioides) [µg/mL] | MIC (Penicillium chrysogenum) [µg/mL] | MIC (Trichoderma harzianum) [µg/mL]
1 | CN[C@@H]1[C@H](O[C@H]2[C@H](O[C@H]3[C@H](O)[C@@H](O)[C@H](N=C(N)N)[C@@H](O)[C@@H]3N=C(N)N)O[C@@H](C)[C@]2(O)C=O)O[C@@H](CO)[C@H](O)[C@H]1O [STREPTOMYCIN] | 31.2 (≈ 53.7 µM) | 15.6 (≈ 26.9 µM) | 7.81 (≈ 13.4 µM) | 31.2 (≈ 53.7 µM) | 15.6 (≈ 26.9 µM) | 125 (≈ 215 µM) | – | – | – | – | – | – | – | – | –
2 | O=C(CSc1ncccn1)N/N=c1/scc(-c2ccccc2)n1-c1ccccc1 | 250 (≈ 596 µM) | 250 (≈ 596 µM) | 250 (≈ 596 µM) | 250 (≈ 596 µM) | 500 (≈ 1190 µM) | 250 (≈ 596 µM) | 250 (≈ 596 µM) | 250 (≈ 596 µM) | 250 (≈ 596 µM) | 250 (≈ 596 µM) | 250 (≈ 596 µM) | 107 (≈ 254 µM) | 250 (≈ 596 µM) | 250 (≈ 596 µM) | 250 (≈ 596 µM)
3 | Cn1cnnc1SCC(=O)N/N=c1/scc(-c2ccc(Cl)cc2)n1-c1ccccc1 | 125 (≈ 274 µM) | 125 (≈ 274 µM) | 250 (≈ 547 µM) | 125 (≈ 274 µM) | 125 (≈ 274 µM) | 250 (≈ 547 µM) | 250 (≈ 547 µM) | 250 (≈ 547 µM) | 250 (≈ 547 µM) | 250 (≈ 547 µM) | 250 (≈ 547 µM) | 51.7 (≈ 113 µM) | 250 (≈ 547 µM) | 250 (≈ 547 µM) | 125 (≈ 274 µM)
4 | Cn1cnnc1SCC(=O)N/N=c1/scc(-c2ccc(F)cc2)n1-c1ccccc1 | 125 (≈ 284 µM) | 250 (≈ 567 µM) | 125 (≈ 284 µM) | 125 (≈ 284 µM) | 250 (≈ 567 µM) | 125 (≈ 284 µM) | 250 (≈ 567 µM) | 250 (≈ 567 µM) | 250 (≈ 567 µM) | 250 (≈ 567 µM) | 250 (≈ 567 µM) | 65 (≈ 148 µM) | 250 (≈ 567 µM) | 250 (≈ 567 µM) | 250 (≈ 567 µM)
5 | Cn1nnnc1SCC(=O)N/N=c1/scc(-c2ccc(Br)cc2)n1-c1ccccc1 | 250 (≈ 498 µM) | 125 (≈ 249 µM) | 250 (≈ 498 µM) | 250 (≈ 498 µM) | 250 (≈ 498 µM) | 250 (≈ 498 µM) | 250 (≈ 498 µM) | 125 (≈ 249 µM) | 250 (≈ 498 µM) | 250 (≈ 498 µM) | 250 (≈ 498 µM) | 19.3 (≈ 38.4 µM) | 250 (≈ 498 µM) | 250 (≈ 498 µM) | 125 (≈ 249 µM)
6 | COc1ccc(-c2cs/c(=N/NC(=O)CSc3nnnn3-c3ccccc3)n2-c2ccccc2)cc1 | 250 (≈ 485 µM) | 125 (≈ 242 µM) | 250 (≈ 485 µM) | 250 (≈ 485 µM) | 500 (≈ 970 µM) | 250 (≈ 485 µM) | 250 (≈ 485 µM) | 125 (≈ 242 µM) | 250 (≈ 485 µM) | 250 (≈ 485 µM) | 250 (≈ 485 µM) | 11.7 (≈ 22.7 µM) | 250 (≈ 485 µM) | 250 (≈ 485 µM) | 125 (≈ 242 µM)
7 | Cn1nnnc1SCC(=O)N/N=c1/scc(-c2ccc(F)cc2)n1-c1ccccc1 | 125 (≈ 283 µM) | 250 (≈ 566 µM) | 250 (≈ 566 µM) | 250 (≈ 566 µM) | 250 (≈ 566 µM) | 250 (≈ 566 µM) | 250 (≈ 566 µM) | 250 (≈ 566 µM) | 250 (≈ 566 µM) | 250 (≈ 566 µM) | 250 (≈ 566 µM) | 113 (≈ 257 µM) | 250 (≈ 566 µM) | 250 (≈ 566 µM) | 250 (≈ 566 µM)
8 | O=C(CSc1ncccn1)N/N=c1/scc(-c2ccc([N+](=O)[O-])cc2)n1-c1ccccc1 | 250 (≈ 538 µM) | 250 (≈ 538 µM) | 250 (≈ 538 µM) | 250 (≈ 538 µM) | 250 (≈ 538 µM) | 250 (≈ 538 µM) | 250 (≈ 538 µM) | 250 (≈ 538 µM) | 250 (≈ 538 µM) | 250 (≈ 538 µM) | 250 (≈ 538 µM) | 193 (≈ 416 µM) | 250 (≈ 538 µM) | 250 (≈ 538 µM) | 250 (≈ 538 µM)
9 | COc1ccc(-c2cs/c(=N/NC(=O)CSc3nnnn3C)n2-c2ccccc2)cc1 | 500 (≈ 1100 µM) | 250 (≈ 551 µM) | 250 (≈ 551 µM) | 250 (≈ 551 µM) | 250 (≈ 551 µM) | 250 (≈ 551 µM) | 250 (≈ 551 µM) | 250 (≈ 551 µM) | 250 (≈ 551 µM) | 250 (≈ 551 µM) | 250 (≈ 551 µM) | 45 (≈ 99.2 µM) | 250 (≈ 551 µM) | 250 (≈ 551 µM) | 250 (≈ 551 µM)
